# Measured values from patent US12370193B2, “Method of inhibiting TREM-1” (UNIVERSITY OF FLORIDA RESEARCH FOUNDATION, INCORPORATED, priority 2019, dated 2025).
# Experiments:
# OP9 cells = assay: Adipogenesis and gene expression in MDI-differentiated OP9 cells; type: cell-based
# From the text: (§1) FIGS. 1A to 1E: Pan modulator with poly-pharmacology. […] FIG. 1D is a graph showing PPARγ target genes (aP2 and CD36) expression in OP9 cells with and without MDI (IBMX, dexamethasone, insulin) treatment. […] SR1903 is represented as orange sticks while PPARγ, RORγ, and LXRβ are depicted as blue ribbons respectively. Specific residues driving the interaction labelled and shown as sticks as well. […] FIG. 1F are graphs showing RORγ target genes (IL17A and IL17F) expression in EL4 cells.
# FIG. 5A-5C: PPARγ and RORγ expression during adipogenesis of OP9 cells.
# Cell lines: HEK293T cells and EL4 cells (American Type Culture Collection) were maintained in DMEM and RAW264.7 cells (American Type Culture Collection) were maintained in RPMI-1640 with 10% heat inactivated FBS and antibiotics (penicillin, streptomycin; Invitrogen). OP9 cells (American Type Culture collection) were maintained in Alpha minimum essential medium (MEM-alpha) with 20% heat inactivated FBS. Twenty-four hours post-confluence, the OP9 cells were differentiated with IBMX ([…]), dexamethasone (1 μM), Insulin (10 μg/mL) for 48 hrs.
# (§2) Quantitative RT-PCR: Total RNA was extracted from EL4 or RAW264.7 cells using RNeasy Plus Micro Kit (Qiagen) and the RNA was reverse transcribed using the ABI reverse transcription kit (Applied Biosystems/Thermo Fisher Scientific, Waltham MA). Quantitative PCR was performed with a 7900HT Fast Real Time PCR System (Applied Biosystems) using SYBR green (Roche).
# TREM-1 [1] = assay: TREM-1 gene expression in LPS-stimulated RAW264.7 cells (RNA sequencing, qPCR); type: cell-based, mouse
# Experimental: (§3) FIG. 2B are graphs showing TREM-1 gene expression by q-PCR. […] All experiments were performed with 3 biological replicates and the median value of TREM-1 fluorescence was represented by the graph on the bottom.
# as §2
# mRNA sequencing analysis: RAW264.7 cells RNA extraction protocol for RNA seq was derived from Qiagen Kit-74106. Total RNA was quantified using the Qubit 2.0 Fluorometer (Invitrogen, Carlsbad, CA) and run on the Agilent 2100 Bioanalyzer (Agilent Technologies, Santa Clara, CA) for quality assessment. RNA samples of good quality with RNA Integrity Number (RIN)>8.0 were further processed. A RNase-free working environment was maintained and RNase-free tips, Eppendorf tubes and plates were utilized for the subsequent steps. Messenger RNA was selectively isolated from total RNA (300 ng input) using poly-T oligos attached to magnetic beads and converted to sequence-ready libraries using the TruSeq stranded mRNA sample prep protocol (Cat. #: RS-122-2101, Illumina, San Diego, CA). The final libraries were validated on the bioanalyzer DNA chips and qPCR quantified using primers that recognize the illumina adaptors. The libraries were then pooled at equimolar ratios, quantified using qPCR and loaded onto the NextSeq 500 flow cell at 1.8 pM final concentration. They were sequenced using the high-output, paired-end, 75-bp chemistry. Demultiplexed and quality filtered raw reads (fastq) generated from the NextSeq 500 were trimmed (adaptor sequences) using Flexbar 2.4 and aligned to the mouse reference database (mm9) using TopHat version 2.0.9 (Trapnell et al., 2009). HTseq-count version 0.6.1 was used to generate gene counts and differential gene expression analysis was performed using Deseq2 (Anders and Huber, 2010).
# [2] = system: collagen-induced arthritis; assay: Collagen-induced arthritis (CIA) mouse model
# Experimental: Clinical score was monitored every day after boosting during 18 days. […] The dosage of all compounds was identical in each group.
# Briefly, DBA/1J mice were injected with chicken type II collagen on day 1 and then each animal received a boost injection of collagen on Day 21. Compound treatment, initiated on day 3-post boost injection, was administered intraperitoneally at 20 mg/kg twice-a-day for a total of 16 days. […] Mice: All mice were maintained in a specific pathogen-free environment in accordance with institutional protocol. […] Female DBA/1J mice were purchased from Taconic. CIA was induced in 8 weeks as previously described^40.
# LXRα = biological target: T1, LXRα (Homo sapiens, UniProt Q13133); assay: Gal4-LXRα co-transfection promoter-reporter assay; type: cell-based; settings: HEK293T cells, read-out: LXR agonist activity EC50
# T1 sequence (Q13133 209-447 limits assumed): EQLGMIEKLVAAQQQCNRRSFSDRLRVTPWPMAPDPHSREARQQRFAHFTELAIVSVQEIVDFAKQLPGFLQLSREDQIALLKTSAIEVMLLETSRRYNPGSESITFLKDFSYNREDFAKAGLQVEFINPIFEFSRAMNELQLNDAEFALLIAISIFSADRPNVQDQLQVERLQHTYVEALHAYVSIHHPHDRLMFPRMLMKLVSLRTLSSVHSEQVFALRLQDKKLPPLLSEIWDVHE
# From the text: as §1
# Reporter gene assays: Twenty-four hours before transfection, HEK293T cells were plated in 96-well plates at a density of 15×10^3 cells per well. UAS:luciferase reporter and Ga14-RORa, Gal4-RORb, Gal4-RORγ, Gal4-LXRα, or Gal4 PPARγ DNA co-transfections were performed using X-tremeGENE 9 (Roche). Twenty-four hours after transfection, the cells were treated with vehicle or compound. Twenty-four hours after treatment, the luciferase activity was measured using the Dual-Glo luciferase assay system (Promega). Results were analyzed using GraphPad Prism software.
# Pharmacokinetics in mice = type: in vivo; settings: 20 mg/kg twice-a-day
# Experimental: Compound was formulated in 10/10/80 DMSO/Tween80/Water and administered to mice at either 20 mg/kg by oral gavage or at 25 mg/kg via intraperitoneal injection. Blood was drawn at the indicated times and plasma was generated. Following solid phase extraction, drug levels were quantitated using LC-MSMS.
# diet-induced obesity = assay: Diet-induced obese (DIO) mouse model; type: in vivo, DIO mice
# TREM-1 [3] = assay: TREM-1 surface expression by FACS in LPS-stimulated RAW264.7 cells; type: cell-based, mouse; settings: 50 hr incubation
# Experimental: as §3
# Flow cytometry and antibodies: For the analysis of macrophage activation, RAW264.7 cells (American Type Culture Collection) were pre-incubated with 5 μM 1903 for 18 h then stimulated with 1 μg/mL LPS (Escherichia coli 0127:B8, Sigma-Aldrich (St. Louis, MO)) for 6 h. RAW264.7 cells were stained with APC conjugated anti-TREM-1 antibody (eBioscience). Cell sorting was performed using LSRII (BD Bioscience).
# [4] = Tolerability following chronic administration; type: in vivo
# [5] = Food intake in lean mice and conditioned taste aversion; type: in vivo
# [6] = OP9 cells, MDI plus 5 uM SR1903, compared to MDI treatment alone
# [7] = 22-week-old DIO mice, 14 days, 20 mg/kg
# [8] = DIO mice, 20 mg/kg i.p. for 14 days
compound,measurement,setting,value
"Cc1cc(CN2CCN(Cc3ccncc3)CC2)ccc1-c1ccc(C(O)(C(F)(F)F)C(F)(F)F)cc1 [SR1903, 1,1,1,3,3,3-hexafluoro-2-(2′-methyl-4′-((4-(pyridin-4-ylmethyl)piperazin-1-yl)methyl)-[1,1′-biphenyl]-4-yl)propan-2-ol]",expression of PPARγ,OP9 cells; OP9 adipogenesis,robustly repressed
same,expression of RORγ,OP9 cells; OP9 adipogenesis,no effect
same,lipid droplet formation,"OP9 cells; OP9 cells, MDI in combination with SR1903, 3 days",suppression of lipid droplet formation
same,repression of PPARγ target gene CD36 expression,OP9 cells; [6],87%
same,repression of PPARγ target gene aP2 (FABP4) expression,OP9 cells; [6],99%
same,LPS induction of TREM-1 gene expression (qPCR),TREM-1 [1]; 26 hr exposure,significantly repressed
same,LPS induction of TREM-1 gene expression (qPCR),TREM-1 [1]; 50 hr treatment,maintained repression
same,TREM1 signaling expression (RNA sequencing),"TREM-1 [1]; LPS-stimulated RAW264.7 cells, 10 μM compound vs DMSO-only",significantly suppressed
same,enlargement of the liver,"[2]; CIA mice, 20 mg/kg",did not cause enlargement of the liver
same,thymocyte differentiation and survival,"[2]; CIA mice, compared to GW3965 or T0901317",enhanced thymocyte differentiation and survival
same,arthritis clinical score,"[2]; Day 34, 20 mg/kg i.p. twice-a-day, vehicle 13.6±2.9",3.8±2.5
same,intrathymic cell number,"[2]; treated mice, unlike SR2211 treated mice",enriched
same,EC50,LXRα,689 nM
same,plasma exposure relative to IC50,Pharmacokinetics in mice,sufficient to have compound levels above its IC50
same,obesity related thymic involution,diet-induced obesity; [7],protected from obesity related thymic involution
same,thymus weight,diet-induced obesity; [7],increase in thymus weight
same,Socs3 expression in the hypothalamus,diet-induced obesity; DIO mice,repressed
same,fasting and fed insulin levels,diet-induced obesity; DIO mice,improved
same,fasting leptin levels,diet-induced obesity; DIO mice,did not alter
same,food intake,diet-induced obesity; DIO mice,reduced food intake
same,leptin resistance (leptin sensitivity test),diet-induced obesity; DIO mice,reduced
same,differentiation of αβTCR+CD4+ and αβTCR+CD8+ cells,diet-induced obesity; DIO mice thymocytes,no effect
same,λδT cell differentiation,diet-induced obesity; DIO mice thymocytes,increase
same,"HDL, TAG, and FFA",diet-induced obesity; [8],no effect
same,fasting glucose levels,diet-induced obesity; [8],improved
same,glucose excursion in glucose tolerance test,diet-induced obesity; [8],statistically significant improvement
same,total cholesterol and LDL,diet-induced obesity; [8],reduced
same,body weight reduction,"diet-induced obesity; DIO mice, 14 days of treatment",~15%
same,reduction of fat mass,"diet-induced obesity; DIO mice, 14 days, determined by NMR",~17%
same,leptin in freely feeding mice,"diet-induced obesity; DIO mice, compared to vehicle",statistically reduced
same,LPS-induced TREM1 cell surface expression,TREM-1 [3],completely blocked
same,tolerability,[4],very well tolerated
same,conditioned taste aversion,[5]; 20 mg/kg,no effect
same,food intake,[5]; lean mice,no effect on food intake
